We go through two molecules from PMC12067145 (ACS Medicinal Chemistry Letters, 2025).

Data set [1] in a line: Brain homogenate binding (mouse). The format is in vitro ADME. The protocol:
(§1) 0.3% DMSO - ΔRatio of 1 µM control compound)x100
(§2) In vitro Plasma protein binding and Brain homogenate binding: Determination of fraction unbound (f u) in plasma was conducted in vitro via equilibrium dialysis using HTDialysis (HTD) membrane plates. The top half of the plate was filled with 100 uL of Dubelco’s Phosphate Buffered Saline, pH 7.4 (DPBS). Compounds were diluted into plasma from each species (5 µM final concentration), which was aliquoted in triplicate to the ‘bottom half’ of the prepared HTD plate wells. The HTD plate was sealed and incubated for 6 hours at 37 °C. […]
(§3) The unbound fraction (f u) was calculated following the equation below, and mean values for each species were calculated from 3 replicates. […] Fraction unbound for both plasma and brain samples was determined using Equation 4. […]
(§4) The diluted fraction unbound (fu2) in brain was calculated in the same manner by using brain homogenate rather than plasma. Undiluted fraction unbound for the brain was calculated using […]
(§5) were incubated in 100 mM potassium phosphate pH 7.4 buffer with 3 mM MgCl2 at 37 °C with constant shaking. […] The in vitro half-life (T 1/2, min, Eq. 1), intrinsic clearance (CLint, mL/min/kg, Eq. 2), and subsequent predicted hepatic clearance (CLhep, mL/min/kg, Eq. 3) were determined employing the following equations: […]

The next data set concerns the target Sodium Channel, Site 2. Briefly: Eurofins lead profiling screen (radioligand binding). Set-up: species or system Rat.
The target of the next data set is Cav1.2 (Homo sapiens, UniProt Q13936). Put plainly: Cardiac ion channel MPC selectivity panel. It counts as cell-based.
Data set [2] relates to other K2P channels except TREK-2. Put plainly: K2P channel selectivity (panel). The format is cell-based. The text has this:
Herein we describe our continuing work on the K2P family of potassium ion channels with the chemical optimization of a selective and CNS penetrant series of TREK inhibitors, culminating in the discovery of ONO-TR-772 (VU6018042).

The next data set concerns the target TREK-1 (Mus musculus, UniProt P97438). Put plainly: Mouse manual patch clamp (MPC). It counts as cell-based.
Data set [3] in a line: Brain homogenate binding (rat). The format is in vitro ADME. As for the experimental part: as §1, §2, §3, §4, §5
A further data set addresses T1, Adenosine A3 (Homo sapiens, UniProt P0DMS8).
T1 construct: Eurofins
Briefly: Eurofins lead profiling screen (radioligand binding).

For another data set, the target named is Potassium Channel [KATP] (Cricetus cricetus, UniProt Q09427). Described as above. Set-up: species or system Hamster.
The target of another data set is Glucocorticoid (Homo sapiens, UniProt P04150). The description is as above.
In a further data set the target is Dopamine D1 (Homo sapiens, UniProt P21728). Described as above.
The next data set deals with Muscarinic M3 (Homo sapiens, UniProt P20309). The data set is described as above.
The target in another data set is Neuropeptide Y Y1 (Homo sapiens, UniProt P25929). Described as above.
The target of data set [4] is Calcium Channel L-Type, Dihydropyridine (Rattus norvegicus, UniProt P22002). Described as above.
The target in a further data set is Dopamine D4.2 (Homo sapiens, UniProt P21917, DEL265-296). The data set is described as above.
In the next data set the test system is Phorbol Ester. The data set is described as above. On the set-up: species or system Mouse.
For the next data set, the target named is Opiate μ (OP3, MOP) (Homo sapiens, UniProt P35372). The description is as above.
For another data set, the target named is Adrenergic α1A (Rattus norvegicus, UniProt P43140). Described as above.
Another data set has as its system GABAA, Muscimol, Central. The data set is described as above. Set-up: species or system Rat.
The next data set has as its target Adrenergic β2 (Homo sapiens, UniProt P07550). Described as above.
For the next data set, the target named is Adrenergic α1B (Rattus norvegicus, UniProt P15823). The data set is described as above.
Data set [5] addresses Transporter, Dopamine (DAT) (Homo sapiens, UniProt Q01959). The description is as above.
Data set [6] concerns GABAA, Flunitrazepam, Central. Described as above. Set-up: species or system Rat.
The target in the next data set is Adenosine A2A (Homo sapiens, UniProt P29274). Described as above.

Usually Ki stands for a measure of affinity in units of concentration, obtained from inhibition or displacement. In general, IC50 refers to the concentration that gives 50% inhibition. Read a high IC50 as weaker potency in that assay. For orientation: inhibition means the drop in the measured response relative to a control, in per cent. The % Inhibition is the relative decrease from the control value, in per cent.

T1 sequence (P0DMS8 whole entry): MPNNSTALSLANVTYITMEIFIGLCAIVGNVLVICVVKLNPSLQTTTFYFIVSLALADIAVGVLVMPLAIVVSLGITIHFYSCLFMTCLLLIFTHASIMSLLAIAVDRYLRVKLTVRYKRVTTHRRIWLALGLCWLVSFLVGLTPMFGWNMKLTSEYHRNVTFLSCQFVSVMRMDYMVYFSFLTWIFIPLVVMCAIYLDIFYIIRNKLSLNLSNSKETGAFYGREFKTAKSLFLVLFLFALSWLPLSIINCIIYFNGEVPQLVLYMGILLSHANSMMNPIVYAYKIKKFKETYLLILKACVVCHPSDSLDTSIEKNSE
Adrenergic α1B, sequence (P15823 whole entry): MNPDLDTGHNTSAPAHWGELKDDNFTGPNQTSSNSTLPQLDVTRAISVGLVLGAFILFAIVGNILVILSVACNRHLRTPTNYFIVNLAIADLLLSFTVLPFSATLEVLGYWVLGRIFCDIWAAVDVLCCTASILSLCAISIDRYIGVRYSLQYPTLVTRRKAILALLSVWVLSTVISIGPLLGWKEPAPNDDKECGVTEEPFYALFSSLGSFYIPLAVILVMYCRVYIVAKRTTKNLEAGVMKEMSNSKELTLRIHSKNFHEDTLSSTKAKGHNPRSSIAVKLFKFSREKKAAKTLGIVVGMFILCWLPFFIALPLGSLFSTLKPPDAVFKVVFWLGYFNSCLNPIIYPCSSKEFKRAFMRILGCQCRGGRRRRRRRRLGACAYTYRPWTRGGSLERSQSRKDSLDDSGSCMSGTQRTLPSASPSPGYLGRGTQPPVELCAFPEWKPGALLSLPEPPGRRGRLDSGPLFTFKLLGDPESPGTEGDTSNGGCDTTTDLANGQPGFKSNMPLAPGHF
Adrenergic β2, sequence (P07550 whole entry): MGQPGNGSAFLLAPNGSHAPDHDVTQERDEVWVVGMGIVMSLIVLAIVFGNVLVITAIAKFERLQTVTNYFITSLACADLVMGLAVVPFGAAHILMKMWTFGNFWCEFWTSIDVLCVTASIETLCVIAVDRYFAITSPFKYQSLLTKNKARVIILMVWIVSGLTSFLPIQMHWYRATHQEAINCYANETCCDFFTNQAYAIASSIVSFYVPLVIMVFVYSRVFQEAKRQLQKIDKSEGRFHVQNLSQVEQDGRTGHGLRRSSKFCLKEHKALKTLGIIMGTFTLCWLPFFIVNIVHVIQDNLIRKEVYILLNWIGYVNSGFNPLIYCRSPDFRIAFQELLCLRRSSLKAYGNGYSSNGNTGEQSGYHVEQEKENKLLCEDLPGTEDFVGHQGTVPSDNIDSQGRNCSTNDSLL
Muscarinic M3, sequence (P20309 whole entry): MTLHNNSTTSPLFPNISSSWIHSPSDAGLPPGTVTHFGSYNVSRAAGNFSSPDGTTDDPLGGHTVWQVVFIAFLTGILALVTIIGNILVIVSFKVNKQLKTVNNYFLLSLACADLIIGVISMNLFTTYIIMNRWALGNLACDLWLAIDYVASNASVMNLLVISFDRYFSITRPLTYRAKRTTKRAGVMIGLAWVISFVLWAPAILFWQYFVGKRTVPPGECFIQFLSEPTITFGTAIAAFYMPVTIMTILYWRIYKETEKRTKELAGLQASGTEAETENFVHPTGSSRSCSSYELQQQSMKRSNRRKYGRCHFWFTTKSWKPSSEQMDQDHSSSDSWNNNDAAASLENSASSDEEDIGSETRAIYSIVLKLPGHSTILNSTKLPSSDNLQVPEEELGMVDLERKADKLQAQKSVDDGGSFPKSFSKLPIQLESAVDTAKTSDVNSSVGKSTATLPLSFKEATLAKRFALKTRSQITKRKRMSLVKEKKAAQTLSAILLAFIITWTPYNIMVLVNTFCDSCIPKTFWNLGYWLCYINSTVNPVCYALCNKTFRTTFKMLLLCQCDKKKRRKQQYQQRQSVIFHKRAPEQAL
Dopamine D1, sequence (P21728 whole entry): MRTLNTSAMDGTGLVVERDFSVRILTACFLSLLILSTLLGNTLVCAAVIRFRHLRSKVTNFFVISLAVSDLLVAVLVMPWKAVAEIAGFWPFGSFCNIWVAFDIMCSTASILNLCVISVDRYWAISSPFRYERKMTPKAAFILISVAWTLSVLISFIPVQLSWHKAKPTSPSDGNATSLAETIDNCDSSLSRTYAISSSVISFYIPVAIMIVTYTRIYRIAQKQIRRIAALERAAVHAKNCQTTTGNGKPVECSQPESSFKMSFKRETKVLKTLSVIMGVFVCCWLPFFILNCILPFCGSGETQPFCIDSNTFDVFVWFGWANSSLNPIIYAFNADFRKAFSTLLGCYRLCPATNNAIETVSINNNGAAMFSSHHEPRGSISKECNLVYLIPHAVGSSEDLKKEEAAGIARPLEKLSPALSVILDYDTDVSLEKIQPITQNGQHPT
Potassium Channel [KATP], sequence (Q09427 whole entry): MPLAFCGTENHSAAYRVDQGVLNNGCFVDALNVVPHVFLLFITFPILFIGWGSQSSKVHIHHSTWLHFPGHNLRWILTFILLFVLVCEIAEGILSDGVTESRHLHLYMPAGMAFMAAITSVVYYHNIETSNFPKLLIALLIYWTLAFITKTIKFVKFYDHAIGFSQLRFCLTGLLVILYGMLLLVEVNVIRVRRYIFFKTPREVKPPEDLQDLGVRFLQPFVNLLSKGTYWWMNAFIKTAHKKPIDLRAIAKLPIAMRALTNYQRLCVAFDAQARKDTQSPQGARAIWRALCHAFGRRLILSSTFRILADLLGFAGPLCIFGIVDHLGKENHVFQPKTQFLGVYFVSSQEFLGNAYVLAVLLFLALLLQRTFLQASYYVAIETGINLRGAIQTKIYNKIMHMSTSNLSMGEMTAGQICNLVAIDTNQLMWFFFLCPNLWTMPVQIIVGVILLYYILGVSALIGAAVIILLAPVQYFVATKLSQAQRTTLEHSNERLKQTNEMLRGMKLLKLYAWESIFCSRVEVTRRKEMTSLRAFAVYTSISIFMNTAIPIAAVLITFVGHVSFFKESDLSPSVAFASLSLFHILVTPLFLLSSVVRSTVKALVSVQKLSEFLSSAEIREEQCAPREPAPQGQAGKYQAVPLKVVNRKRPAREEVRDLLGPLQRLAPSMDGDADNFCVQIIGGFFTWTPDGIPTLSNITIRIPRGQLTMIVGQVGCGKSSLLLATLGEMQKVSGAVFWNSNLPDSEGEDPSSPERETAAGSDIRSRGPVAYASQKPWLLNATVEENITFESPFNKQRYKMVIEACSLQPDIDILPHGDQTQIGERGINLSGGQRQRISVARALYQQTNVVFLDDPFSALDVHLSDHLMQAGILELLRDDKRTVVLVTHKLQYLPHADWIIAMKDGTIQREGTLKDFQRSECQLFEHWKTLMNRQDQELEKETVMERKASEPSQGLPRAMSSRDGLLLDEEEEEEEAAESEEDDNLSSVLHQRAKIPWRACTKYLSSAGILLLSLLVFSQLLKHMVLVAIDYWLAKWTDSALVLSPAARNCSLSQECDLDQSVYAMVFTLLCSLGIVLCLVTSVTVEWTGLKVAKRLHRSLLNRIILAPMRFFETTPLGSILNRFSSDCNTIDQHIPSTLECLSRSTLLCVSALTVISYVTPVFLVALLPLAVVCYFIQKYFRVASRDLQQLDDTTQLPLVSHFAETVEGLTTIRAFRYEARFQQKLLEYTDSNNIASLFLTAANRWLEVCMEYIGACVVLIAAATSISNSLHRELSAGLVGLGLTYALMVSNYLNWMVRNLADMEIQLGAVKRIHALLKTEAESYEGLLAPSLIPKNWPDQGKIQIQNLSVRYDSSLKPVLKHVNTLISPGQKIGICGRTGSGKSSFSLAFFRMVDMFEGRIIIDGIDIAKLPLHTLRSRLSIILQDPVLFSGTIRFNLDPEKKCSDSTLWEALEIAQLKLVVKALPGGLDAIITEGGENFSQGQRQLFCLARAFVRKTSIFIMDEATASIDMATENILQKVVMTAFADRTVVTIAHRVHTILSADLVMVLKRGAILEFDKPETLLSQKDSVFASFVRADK
Opiate μ (OP3, MOP), sequence (P35372 whole entry): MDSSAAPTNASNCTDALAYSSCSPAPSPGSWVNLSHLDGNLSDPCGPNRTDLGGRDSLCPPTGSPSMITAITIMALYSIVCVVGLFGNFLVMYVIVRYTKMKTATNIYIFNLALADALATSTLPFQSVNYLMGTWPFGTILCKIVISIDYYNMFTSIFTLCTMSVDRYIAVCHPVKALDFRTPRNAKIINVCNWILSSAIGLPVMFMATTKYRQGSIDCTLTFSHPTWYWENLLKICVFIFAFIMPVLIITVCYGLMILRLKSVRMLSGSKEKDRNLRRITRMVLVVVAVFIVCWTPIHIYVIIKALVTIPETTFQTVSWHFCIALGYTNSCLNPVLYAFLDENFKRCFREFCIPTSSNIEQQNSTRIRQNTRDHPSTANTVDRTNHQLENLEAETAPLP
Neuropeptide Y Y1, sequence (P25929 whole entry): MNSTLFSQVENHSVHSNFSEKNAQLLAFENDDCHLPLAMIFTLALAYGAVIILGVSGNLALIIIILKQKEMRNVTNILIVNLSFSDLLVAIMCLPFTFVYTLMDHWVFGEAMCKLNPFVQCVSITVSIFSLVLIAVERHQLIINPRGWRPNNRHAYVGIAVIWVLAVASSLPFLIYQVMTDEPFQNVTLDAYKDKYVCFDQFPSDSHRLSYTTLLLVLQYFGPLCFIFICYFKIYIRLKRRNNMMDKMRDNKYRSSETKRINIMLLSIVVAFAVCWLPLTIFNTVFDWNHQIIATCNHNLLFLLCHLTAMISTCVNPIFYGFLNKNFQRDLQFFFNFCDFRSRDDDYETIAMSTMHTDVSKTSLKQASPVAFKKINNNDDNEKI

With `Cc1cc(C#Cc2ccc(F)cc2)cnc1NC(=O)c1cc(NC(=O)OC(C)(C)C)ccc1Cl` [Compound 14c], in data set [1], the “brain homogenate binding mouse” value stood at 99.4%. The inhibition constant (Ki) was 650 nM on Sodium Channel, Site 2 and 480 nM on Adenosine A3. For the same molecule, on Cav1.2, the “% at 10 μM, Cav1.2” value is given as < 50%. In addition, the “activity versus other K2P channels except TREK-2” value in [2] is > 10 µM. This molecule also registered an IC50 on TREK-1 of 67 nM. In data set [3], the “brain homogenate binding rat” value is > 99.9%.
Consider `O=C(NCc1ccc(OC(F)(F)F)cc1F)c1ccc2ncnn2c1` [ONO-2920632], for which the inhibition at 10 µM on Potassium Channel [KATP] is -6%; on Glucocorticoid it was -4%; at Dopamine D1, 8%; on Muscarinic M3, 7%; at Neuropeptide Y Y1, 15%; in [4] it was 76%. The inhibition at 10 µM stood at 5% at Dopamine D4.2; 15% at Opiate μ (OP3, MOP); 40% on Adrenergic α1A; 4% at Adrenergic β2; 11% on Adrenergic α1B; 23% in data set [5]. For the same molecule, the figures for the inhibition at 10 µM at Adenosine A2A and at Adenosine A3 were 3% and 84%, respectively. Further, the “% Inhibition at 10 µM” value with Sodium Channel, Site 2 (10 µM) was 84%; in the data set with Phorbol Ester, -7%; with GABAA, Muscimol, Central, 2%; in [6], -9%.
